Values quoted from earlier work, collected in patent publication US10137135B2, “Formulations and methods for providing progestin-only contraception while minimizing adverse side effects associated therewith” (Allergan Sales, LLC, priority 2005, dated 2018).

Test system: ovulation
Conditions: subdermal implants of NEA

Compound: C#C[C@]1(OC(C)=O)CC[C@H]2[C@@H]3CCC4=CC(=O)CC[C@@H]4[C@H]3CC[C@@]21C [NEA, norethindrone acetate]
- NE levels thought to be required to consistently inhibit ovulation: 600 pg/mL
